The source of these data is patent US8030354B2, “Substituted biphenyl GPR40 modulators” (Amgen Inc., priority 2007, dated 2011).

The target in assay [1] is T1, GPR40 (Homo sapiens, UniProt O14842). Description: Competition binding assay on A9 membranes expressing GPR40 with [3H] labeled Comparative Compound 1. The note with it: 5 nM radioligand, 4 hours, room temperature. Also on record: expressed in transfected cells; host or cells: membranes of A9 cells expressing GPR40. The method, then: Competition binding assays were performed on A9 membranes expressing GPR40.

Assay [2] deals with T1, GPR40. Description: Cell-based aequorin assay (CHO cells stably expressing GPR40 and aequorin). Set-up: expressed in transfected cells; host or cells: CHO cells stably transfected with GPR40 and aequorin. The note with it: for pEC50: activation of human GPR40, CHO cells, 0.01% HSA. In a few lines:
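CHO cells stably co-expressing GPR40 and aequorin, loaded with coelenterazine (1 ug/mL, 2 h, room temperature) in H/HBSS with 20 mM Hepes and 0.01% fatty acid-free HSA. Serially diluted compounds added; luminescence recorded over 20 s. EC50 from dose-response of maximum relative light units.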

The target in assay [3] is T1, GPR40. Briefly: Inositol phosphate accumulation in response to compounds. It is filed as cell-based. Also on record: expressed in transfected cells. The note with it: FIG. 3; as a function of concentration; compared with Comparative Compound 1. An excerpt: FIG. 3 is a graph showing inositol phosphate accumulation in response to various compounds as a function of concentration.

Assay [4] addresses T1, GPR40. Description: Displacement of 3H-labeled Comparative Compound 1 by unlabeled compounds. In kind it is binding. Also on record: expressed in transfected cells; host or cells: membranes of A9 cells expressing GPR40. The note with it: FIG. 1.
Assay [5] has as its target T1, GPR40. Briefly: Inositol phosphate accumulation assay (A9_GPR40 cells). It is filed as cell-based. Set-up: expressed in transfected cells; host or cells: CHO cells stably transfected with GPR40 and aequorin. The note with it: for agonist type in inositol phosphate accumulation assay: [3H] inositol accumulation after 1 hour, FIG. 3; for pEC50: inositol phosphate assay, A9_GPR40 cells, 1 hour, read-out: IP3 EC50. An outline of the steps:
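[^3H] inositol phosphate accumulation was measured by SPA after 1 h compound exposure at 37° C in HBSS/10 mM LiCl containing HSA, ending with a 20 mM formic acid quench. The GPR40-transfected A9 cells had first been labelled overnight (16 h) with 1 μCi/mL ^3H-inositol.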

For assay [6], the system named is fetal rat intestinal cells isolated from E19 rat embryos. Description: GLP-1 secretion into culture medium from fetal rat intestinal cells. The note with it: FIG. 5-7; cultured cells treated with serial dilutions of compound. In kind it is cell-based. As to the method:
FIG. 5 is a graph showing the concentration of GLP-1 secreted into culture medium as a function of the amount of Example compounds 14 and 69.8. The GLP-1 was secreted from fetal rat intestinal cells isolated from E19 rat embryos. The cultured cells were treated with serial dilutions of the indicated compounds, and GLP-1 secreted into the culture medium was determined.
FIG. 6 is a graph showing the concentration of GLP-1 secreted into culture medium as a function of the amount of Example compound 66.6. The GLP-1 was secreted from fetal rat intestinal cells isolated from E19 rat embryos. The cultured cells were treated with serial dilutions of the indicated compound, and GLP-1 secreted into the culture medium was determined.
FIG. 7 is a graph showing the concentration of GLP-1 secreted into culture medium as a function of the amount of Example compounds 14, 66.17, 77.3, and 83.1. The GLP-1 was secreted from fetal rat intestinal cells isolated from E19 rat embryos. The cultured cells were treated with serial dilutions of the indicated compounds, and GLP-1 secreted into the culture medium was determined.

Assay [7] deals with T1, GPR40. Briefly: Aequorin luminescence in response to compounds. In kind it is cell-based. Set-up: expressed in transfected cells. The note with it: FIG. 2; as a function of concentration; compared with fatty acid ligands. An excerpt:
FIG. 2 is a graph showing Aequorin luminescence in response to various compounds as a function of concentration.

pEC50: −log10 of the molar value.

T1 sequence (O14842 whole entry): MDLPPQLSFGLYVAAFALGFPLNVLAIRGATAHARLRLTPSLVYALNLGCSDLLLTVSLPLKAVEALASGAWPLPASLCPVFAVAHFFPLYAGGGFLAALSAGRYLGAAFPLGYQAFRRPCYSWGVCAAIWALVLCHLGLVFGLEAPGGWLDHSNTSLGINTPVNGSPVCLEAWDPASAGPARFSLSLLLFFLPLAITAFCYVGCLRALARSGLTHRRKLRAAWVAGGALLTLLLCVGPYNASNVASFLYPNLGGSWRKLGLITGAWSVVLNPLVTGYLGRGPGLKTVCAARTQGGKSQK

One may read the pEC50 as −log10 of the EC50, conventionally taken in molar units. Turning to `CCCCOc1cc(COc2cccc([C@@H](CC(=O)O)C3CC3)c2)ccc1-c1cc(OC)ccc1F` (single isomer, unassigned) [Example 9, (3S)-3-(3-(((2-(Butyloxy)-2′-fluoro-5′-(methyloxy)-1,1′-biphenyl-4-yl)methyl)oxy)phenyl)-3-cyclopropylpropanoic acid or (3R)-3-(3-(((2-(butyloxy)-2′-fluoro-5′-(methyloxy)-1,1′-biphenyl-4-yl)methyl)oxy)phenyl)-3-cyclopropylpropanoic acid], at GPR40 [1], the “displacement of bound [3H] labeled Comparative Compound 1” value is “did not displace” and the “effect on binding of the radioligand (Comparative Compound 1) to the receptor” value is reported as “enhanced the binding of the radioligand”. Moreover, on GPR40 [2], the pEC50 was 6.00 to 7.00. Besides, the inositol phosphate accumulation result on GPR40 [3] is “greater than Comparative Compound 1”. Moreover, on GPR40 [4], the “displacement of 3H-labeled Comparative Compound 1 / total binding of 3H-labeled Comparative Compound 1” value was “enhanced the total binding”. Further, at GPR40 [5], the “agonist type in inositol phosphate accumulation assay” value was “potent full agonists” and the pEC50 was 6.00 to 7.00.

As to `COc1ccc(F)c(-c2ccc(COc3cccc([C@@H](CC(=O)O)C4CC4)c3)cc2C2=CCCC2(C)C)c1` (single isomer, unassigned) [Example 14, (3S)-3-Cyclopropyl-3-(3-(((2-(5,5-dimethyl-1-cyclopenten-1-yl)-2′-fluoro-5′-(methyloxy)-1,1′-biphenyl-4-yl)methyl)oxy)phenyl)propanoic acid or (3R)-3-cyclopropyl-3-(3-(((2-(5,5-dimethyl-1-cyclopenten-1-yl)-2′-fluoro-5′-(methyloxy)-1,1′-biphenyl-4-yl)methyl)oxy)phenyl)propanoic acid], on GPR40 [1], the “displacement of bound [3H] labeled Comparative Compound 1” value is on record as “did not displace” and the “effect on binding of the radioligand (Comparative Compound 1) to the receptor” value was “enhanced the binding of the radioligand”. In addition, in assay [6], the “concentration of GLP-1 secreted into culture medium” value is on record as “significantly stimulated GLP-1 secretion”. At GPR40 [2], this compound gave a pEC50 of 6.00 to 7.00. Also, at GPR40 [2] (compared with α-linolenic acid and docosahexaenoic acid, FIG. 2), the “agonist type in aequorin assay” value is “potent full agonists”. For the same compound, the inositol phosphate accumulation entry at GPR40 [3] is listed as “greater than Comparative Compound 1”. The Aequorin luminescence result on GPR40 [7] is given as “equivalent to naturally occurring fatty acid ligands”. For the same compound, the “displacement of 3H-labeled Comparative Compound 1 / total binding of 3H-labeled Comparative Compound 1” value at GPR40 [4] is listed as “enhanced the total binding”. Moreover, on GPR40 [5], the “agonist type in inositol phosphate accumulation assay” value is on record as “potent full agonists” and the pEC50 is 7.00 to 8.00.
